Assay [1] deals with LPS-induced release of endogenous TNFα from PBMCs from healthy donors. The assay can be described thus: ELISA-based TNFα release assay, LPS-induced, PBMCs from healthy donors. The class given is cell-based. To be noted: Homo sapiens, PBMC; LPS 50 ng/ml, 2 hours; recombinant murine antibodies and IgG at 1 μg/ml; Batimastat at 10 μM. As to the method: (§1) In brief, on day 1, Nunc black MaxiSorp® 96-well plates (Thermo Fisher Scientific, USA) were coated overnight with 100 μl per well of mouse anti-human TNFα capture antibody (provided as part of the DuoSet ELISA kit) at 4 μg/ml TBS at 4° C. On day 2, the capture antibody solution was removed and MaxiSorp® plates were blocked with 300 μl per well of TBS, 1% BSA at room temperature for 3 hours. Meanwhile, 20,000 PBMC from healthy donors (STEMCELL Technologies, Canada) cells in 80 μl of normal growth medium were seeded in each well of Greiner CELLSTAR V-bottom 96-well plates (Thermo Fisher Scientific, USA) and pre-incubated with 20 μl per well of standard growth medium supplemented with Batimastat (BB94, Abcam, UK) at 50 μM as positive control (for a final concentration of 10 μM in the resulting 100 μl sample volume), mouse IgG antibody (Thermo Fisher Scientific, USA) at 5 μg/ml as isotype control (for a final concentration of 1 μg/ml in the resulting 100 μl sample volume) or antibodies of the invention at 5 μg/ml (for a final concentration of 1 μg/ml in the resulting 100 μl sample volume) at 37° C., 5% CO2 for 30 minutes. […] Using an infinite M1000 (Tecan Group, Switzerland) microplate reader, the fluorescence of each well was collected at an excitation wavelength of 435 nm and an emission wavelength of 555 nm.
In general terms: ELISA stands for enzyme-linked immunosorbent assay.

Assay [2] deals with PMA-induced release of endogenous IL-6R from PBMCs from healthy donors. The assay can be described thus: ELISA-based IL-6R release assay, PMA-induced, PBMCs from healthy donors. The class given is cell-based. To be noted: Homo sapiens, PBMC; PMA 25 ng/ml, 6 hours; recombinant murine antibodies and IgG at 1 μg/ml; Batimastat at 10 μM. As to the method: as §1, with “IL-6R” for “TNFα”, “40,000” for “20,000”

The structures appear in SMILES notation.

For `CNC(=O)[C@H](Cc1ccccc1)NC(=O)[C@H](CC(C)C)[C@H](CSc1cccs1)C(=O)NO` [Batimastat], the inhibition at 10 µM in assay [1] turned out to be 99.6%; in assay [2], 114%.

A word on the inhibition: it is the change of the read-out against control, counted positive when it falls.

(Values after US20240287172A1, “PROTEIN BINDERS TO IRHOM2 EPITOPES” (SCIRHOM GMBH, priority 2019, published 2024).)
